pIC50: −log10 of the molar value.
Columns and labels:
Type in all cases: cell-based
[1] = molecular target: T1, Ba/F3 cells CD74-ROS1 G2032R (Homo sapiens, UniProt P08922, G2032R); assay: Ba/F3 cell proliferation assay, CD74-ROS1 G2032R; conditions: 72 hours, CellTiter-Glo
T1 construct: fusion of the C-terminus of ROS1 with the N-terminus of various partner proteins; host or cells: Ba/F3 (RIKEN), retroviral pMSCV-puro; the other entry of the earlier key: CD74 (P04233, HLA class II histocompatibility antigen gamma chain)
T1 sequence (P08922 1883-2347 G2032R limits assumed): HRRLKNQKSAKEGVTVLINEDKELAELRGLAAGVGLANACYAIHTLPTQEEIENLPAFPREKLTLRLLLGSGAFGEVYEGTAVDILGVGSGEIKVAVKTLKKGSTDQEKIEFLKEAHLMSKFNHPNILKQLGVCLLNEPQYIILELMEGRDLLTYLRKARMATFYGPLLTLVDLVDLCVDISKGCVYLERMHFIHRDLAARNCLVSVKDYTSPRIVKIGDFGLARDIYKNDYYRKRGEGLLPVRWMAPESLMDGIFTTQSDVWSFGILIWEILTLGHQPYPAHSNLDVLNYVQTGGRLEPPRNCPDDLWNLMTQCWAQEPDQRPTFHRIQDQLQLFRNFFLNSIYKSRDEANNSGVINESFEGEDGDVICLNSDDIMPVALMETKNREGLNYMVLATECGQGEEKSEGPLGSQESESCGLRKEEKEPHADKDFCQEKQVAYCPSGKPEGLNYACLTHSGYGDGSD
Protocol: (§1) The virus was used to infect Ba/F3 cells (RIKEN) at multiplicity of infection=1 for 1 day. Infected cells were rescued in media (RPMI-1640 with 10% fetal bovine serum and 1% streptomycin and penicillin) supplemented with mouse IL-3 (10 ng/mL) for 2 days, and stable cell lines were selected by IL-3 withdrawal and puromycin (0.8 μg/mL) for 7 days. Monoclones were selected by single-cell dilution in IL-3-free medium containing puromycin (0.8 μg/mL).
(§2) Cell Proliferation Assay Stable cells were plated at 1,000 cells/well (40 μL) in a 384-well plate for 1 day.
(§3) Test compounds (40 nL) were then added in a 3-fold dilution series using the TECAN EVO200 liquid handler and incubated for 72 hours. Plates were equilibrated at room temperature for 15 minutes followed by addition of 40 μL CellTiter-Glo reagent (Promega).
(§4) Luminescence was measured on a plate reader. Half-maximal inhibitory concentration (IC50) was calculated from percent inhibition and inhibitor concentration using four-parameter logistic regression. […] (nd=not determined).

[2] = system: TPM3-NTRK1-wt IC50 / primary target IC50 (e.g. CD74-ROS1-wt); assay: TRKA selectivity in Ba/F3 cells (TRKA potency divided by primary target potency); conditions: for TPM3-NTRK1-wt/CD74-ROS1-G2032R selectivity ratio: TRKA potency / CD74-ROS1-G2032R potency; for TPM3-NTRK1-wt/EML4-ALK-L1196M-G1202R selectivity ratio: TRKA potency / EML4-ALK-L1196M-G1202R potency; for TPM3-NTRK1-wt/CD74-ROS1-wt selectivity ratio: TRKA potency / CD74-ROS1-wt potency; for TPM3-NTRK1-wt/EML4-ALK-wt selectivity ratio: TRKA potency / EML4-ALK-wt potency
Protocol: TRKA selectivity was calculated by dividing a compound's TRKA potency by its primary target potency (e.g. TPM3-NTRK1-wt IC50/CD74-ROS1-wt IC50). Compound selectivity can be interpreted by binning ratio values: bin A for very high selectivity, ratio >30-fold; bin B for high selectivity, ratio >10-fold; bin C for moderate selectivity, ratio ≥1; and bin D for low selectivity, ratio <1. […] (nd=not determined).

[3] = molecular target: T2, Ba/F3 cells TPM3-TRKA (Homo sapiens, UniProt P04629); assay: Ba/F3 cell proliferation assay, TPM3-TRKA; conditions: 72 hours, CellTiter-Glo, read-out: TPM3-NTRK1-wt IC50
T2 construct: host or cells: Ba/F3 (RIKEN), retroviral pMSCV-puro; the other entry of the earlier key: TPM3 (P06753, Tropomyosin alpha-3 chain)
T2 sequence (P04629 510-796 limits assumed): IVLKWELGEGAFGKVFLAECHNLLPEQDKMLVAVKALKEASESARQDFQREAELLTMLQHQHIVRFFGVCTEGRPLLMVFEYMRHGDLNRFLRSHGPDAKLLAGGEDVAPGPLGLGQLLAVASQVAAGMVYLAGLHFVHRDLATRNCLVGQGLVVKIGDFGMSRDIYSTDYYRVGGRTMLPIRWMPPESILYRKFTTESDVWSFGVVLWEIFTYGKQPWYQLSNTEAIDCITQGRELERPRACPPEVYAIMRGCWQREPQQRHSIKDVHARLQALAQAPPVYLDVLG
Source text: (§5) Genes encoding CD74-ROS1 wild-type (wt), CD74-ROS1 G2032R, CD74-ROS1 S1986F, CD74-ROS1 L2026M, CD74-ROS1 D2033N, EML4-ALK wt (variant 1), EML4-ALK G1202R (variant 1), EML4-ALK L1196M/G1202R (variant 1), EML4-ALK G1202R/G1269A (variant 1), EML4-ALK G1202R/L1198F (variant 1), and TPM3-TRKA were synthesized at GeneRay, cloned into the retroviral construct pMSCV-puro (Biovector), and packaged into retroviral particles. The virus was used to infect Ba/F3 cells (RIKEN) at multiplicity of infection=1 for 1 day. Infected cells were rescued in media (RPMI-1640 with 10% fetal bovine serum and 1% streptomycin and penicillin) supplemented with mouse IL-3 (10 ng/mL) for 2 days, and stable cell lines were selected by IL-3 withdrawal and puromycin (0.8 μg/mL) for 7 days. Monoclones were selected by single-cell dilution in IL-3-free medium containing puromycin (0.8 μg/mL). Transformation of desired genes was confirmed by Sanger sequencing and western blot using the following antibodies: ROS1 (CST #3287), ALK (CST #3633), and pan-TRK (Abcam #76291).
as §2, §3, §4

[4] = molecular target: T3, Ba/F3 cells EML4-ALK L1196M/G1202R (variant 1) (Homo sapiens, UniProt Q9UM73, G1202R/L1196M); assay: Ba/F3 cell proliferation assay, EML4-ALK L1196M/G1202R (variant 1); conditions: 72 hours, CellTiter-Glo
T3 construct: echinoderm microtubule-associated protein-like 4 (EML4) gene and the ALK tyrosine kinase domain; host or cells: Ba/F3 (RIKEN), retroviral pMSCV-puro; the other entry of the earlier key: EML4 (Q9HC35, Echinoderm microtubule-associated protein-like 4)
T3 sequence (Q9UM73 with tags, fused parts or gaps L1196M/G1202R): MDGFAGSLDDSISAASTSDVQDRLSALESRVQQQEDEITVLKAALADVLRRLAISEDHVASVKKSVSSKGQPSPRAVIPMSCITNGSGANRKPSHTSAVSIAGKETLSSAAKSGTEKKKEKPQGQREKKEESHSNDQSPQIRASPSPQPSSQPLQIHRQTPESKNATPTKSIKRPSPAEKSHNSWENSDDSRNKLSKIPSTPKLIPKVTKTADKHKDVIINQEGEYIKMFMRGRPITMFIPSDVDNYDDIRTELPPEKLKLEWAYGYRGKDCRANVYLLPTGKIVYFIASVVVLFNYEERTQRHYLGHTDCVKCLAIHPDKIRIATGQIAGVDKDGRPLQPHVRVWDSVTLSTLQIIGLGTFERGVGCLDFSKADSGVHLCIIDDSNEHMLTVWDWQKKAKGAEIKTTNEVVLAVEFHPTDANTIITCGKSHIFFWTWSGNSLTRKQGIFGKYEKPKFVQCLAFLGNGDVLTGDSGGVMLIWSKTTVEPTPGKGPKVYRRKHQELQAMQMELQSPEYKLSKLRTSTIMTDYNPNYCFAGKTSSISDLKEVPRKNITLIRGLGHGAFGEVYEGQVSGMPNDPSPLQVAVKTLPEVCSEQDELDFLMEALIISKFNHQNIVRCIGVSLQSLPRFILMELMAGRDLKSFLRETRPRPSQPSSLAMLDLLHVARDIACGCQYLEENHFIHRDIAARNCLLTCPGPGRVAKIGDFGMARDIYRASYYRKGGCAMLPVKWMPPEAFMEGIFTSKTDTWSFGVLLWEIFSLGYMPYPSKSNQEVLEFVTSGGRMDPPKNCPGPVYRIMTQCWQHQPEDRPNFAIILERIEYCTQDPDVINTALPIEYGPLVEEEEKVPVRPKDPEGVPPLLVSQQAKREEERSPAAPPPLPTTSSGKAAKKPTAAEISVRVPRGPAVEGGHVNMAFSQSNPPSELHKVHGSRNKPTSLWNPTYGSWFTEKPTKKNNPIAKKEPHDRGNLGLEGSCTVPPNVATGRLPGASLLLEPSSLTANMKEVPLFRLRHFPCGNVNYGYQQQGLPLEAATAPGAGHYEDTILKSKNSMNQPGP
Source text: as §5, §2, §3, §4

[5] = molecular target: T4, Ba/F3 cells EML4-ALK wt (variant 1) (Homo sapiens, UniProt Q9UM73); assay: Ba/F3 cell proliferation assay, EML4-ALK wt (variant 1); conditions: 72 hours, CellTiter-Glo
T4 construct: echinoderm microtubule-associated protein-like 4 (EML4) gene and the ALK tyrosine kinase domain; host or cells: Ba/F3 (RIKEN), retroviral pMSCV-puro; the other entry of the earlier key: EML4 (Q9HC35, Echinoderm microtubule-associated protein-like 4)
T4 sequence (Q9UM73 with tags, fused parts or gaps): as the sequence (Q9UM73 with tags, fused parts or gaps L1196M/G1202R) above, with M635L, R641G counted along it
Source text: as §5, §2, §3, §4

[6] = molecular target: T5, Ba/F3 cells CD74-ROS1 wild-type (wt) (Homo sapiens, UniProt P08922); assay: Ba/F3 cell proliferation assay, CD74-ROS1 wild-type; conditions: 72 hours, CellTiter-Glo
T5 construct: fusion of the C-terminus of ROS1 with the N-terminus of various partner proteins; host or cells: Ba/F3 (RIKEN), retroviral pMSCV-puro; the other entry of the earlier key: CD74 (P04233, HLA class II histocompatibility antigen gamma chain)
T5 sequence (P08922 1883-2347 limits assumed): as the sequence (P08922 1883-2347 G2032R limits assumed) above, with R150G counted along it
Protocol: as §1, §2, §3, §4

Row | SMILES | pIC50 [1] | TPM3-NTRK1-wt/CD74-ROS1-G2032R selectivity ratio [2] | TPM3-NTRK1-wt/EML4-ALK-L1196M-G1202R selectivity ratio [2] | pIC50 [3] | pIC50 [4] | pIC50 [5] | TPM3-NTRK1-wt/CD74-ROS1-wt selectivity ratio [2] | TPM3-NTRK1-wt/EML4-ALK-wt selectivity ratio [2] | pIC50 [6]
1 | C[C@H]1Oc2cc(cnc2N)-c2c(C#N)nn(C)c2Cc2ncsc2-c2ccc(F)cc21 [Example 57, (19R)-22-amino-16-fluoro-5,19-dimethyl-20-oxa-11-thia-4,5,9,23-tetraazapentacyclo[19.3.1.0^2,^6.0^8,^12.0^13,^18]pentacosa-1(24),2(6),3,8(12),9,13,15,17,21(25),22-decaene-3-carbonitrile] | 7.30 to 10.00 | A (bin A for very high selectivity, ratio >30-fold) | C (bin C for moderate selectivity, ratio ≥1) | < 6.30 | 6.30 to 7.30 |  |  |  | 
2 | Cc1nc2c(o1)-c1ccc(F)cc1[C@@H](C)Oc1cc(cnc1N)-c1c(c(C)nn1CC1CC1)C2 [Example 78, (19R)-3-(cyclopropylmethyl)-16-fluoro-5,10,19-trimethyl-11,20-dioxa-3 ,4,9,23-tetraazapentacyclo[19.3.1.0^2,^6.0^8,^12.0^13,^18]pentacosa-1(24),2(6),4,8(12),9,13,15,17,21(25),22-decaen-22-amine] | 7.30 to 10.00 | A (bin A for very high selectivity, ratio >30-fold) | A (bin A for very high selectivity, ratio >30-fold) | < 6.30 | 6.30 to 7.30 | 7.30 to 10.00 | A (bin A for very high selectivity, ratio >30-fold) | A (bin A for very high selectivity, ratio >30-fold) | 7.30 to 10.00
3 | CCn1ncc2c1-c1cnc(N)c(c1)O[C@H](C)c1cc(F)ccc1-c1c(Cl)cnn1C2 [Example 27, (19R)-11-chloro-3-ethyl-16-fluoro-19-methyl-20-oxa-3,4,8,9,23-pentaazapentacyclo[19.3,1.0^2,^6.0^8,^12.0^13,^18]pentacosa-1(24),2(6),4,9,11,13,15,17,21(25),22-decaen-22-amine] | 7.30 to 10.00 | A (bin A for very high selectivity, ratio >30-fold) | C (bin C for moderate selectivity, ratio ≥1) | < 6.30 | 6.30 to 7.30 | 7.30 to 10.00 |  | B (bin B for high selectivity, ratio >10-fold) | 
4 | Cc1nn(CC2CC2)c2c1Cn1nc(Cl)cc1-c1ccc(F)cc1[C@@H](C)Oc1cc-2cnc1N [Example 81, (19R)-10-chloro-3-(cyclopropylmethyl)-16-fluoro-5,19-dimethyl-20-oxa-3,4,8,9,23-pentaazapentacyclo[19.3.1.0^2,^6.0^8,^12.0^13,^18]pentacosa-1(24),2(6),4,9,ll,13,15,17,21(25),22-decaen-22-amine] | 7.30 to 10.00 | A (bin A for very high selectivity, ratio >30-fold) | C (bin C for moderate selectivity, ratio ≥1) | < 6.30 | < 6.30 | 6.30 to 7.30 | A (bin A for very high selectivity, ratio >30-fold) | A (bin A for very high selectivity, ratio >30-fold) | 7.30 to 10.00
5 | Cc1nc2c(s1)-c1ccc(F)cc1[C@@H](C)Oc1cc(cnc1N)-c1c(C#N)nn(C)c1C2 [Example 68, (19R)-22-amino-16-fluoro-5,10,19-trimethyl-20-oxa-11-thia-4,5,9,23-tetraazapentacyclo[19.3.1.0^2,^6.0^8,^12.0^13,^18]pentacosa-1(24),2(6),3,8(12),9,13,15,17,21(25),22-decaene-3-carbonitrile] | 7.30 to 10.00 | A (bin A for very high selectivity, ratio >30-fold) | C (bin C for moderate selectivity, ratio ≥1) | < 6.30 | 6.30 to 7.30 |  |  |  | 
6 | Cc1nc2c(o1)-c1ccc(F)cc1C(C)Oc1cc(cnc1N)-c1c(c(Cl)nn1CC1CC1)C2 (centres unmarked) [Example 93] | 7.30 to 10.00 | A (bin A for very high selectivity, ratio >30-fold) | B (bin B for high selectivity, ratio >10-fold) | < 6.30 | 6.30 to 7.30 | 6.30 to 7.30 | A (bin A for very high selectivity, ratio >30-fold) | A (bin A for very high selectivity, ratio >30-fold) | 7.30 to 10.00
7 | CCn1ncc2c1-c1cnc(N)c(c1)O[C@H](C)c1cc(F)ccc1-c1ncn(C)c1C2 [Example 6, (19R)-3-ethyl-16-fluoro-9,19-dimethyl-20-oxa-3,4,9,11,23-pentaazapentacyclo[19.3.1.0^2,^6.0^8,^12.0^13,^18]pentacosa-1(24),2(6),4,8(12),10,13,15,17,21(25),22-decaen-22-amine] | 7.30 to 10.00 | A (bin A for very high selectivity, ratio >30-fold) | C (bin C for moderate selectivity, ratio ≥1) | 6.30 to 7.30 | 7.30 to 10.00 | 7.30 to 10.00 |  | A (bin A for very high selectivity, ratio >30-fold) | 
8 | Cc1nn(CC2CC2)c2c1Cc1nccnc1-c1ccc(F)cc1[C@@H](C)Oc1cc-2cnc1N [Example 77, (20R)-3-(cyclopropylmethyl)-17-fluoro-5,20-dimethyl-21-oxa-3,4,9,12,24-pentaazapentacyclo[20.3.1.0^2,^6.0^8,^13.0^14,^19]hexacosa-1(25),2(6),4,8(13),9,11,14,16,18,22(26),23-undecaen-23-amine] | 7.30 to 10.00 | A (bin A for very high selectivity, ratio >30-fold) | A (bin A for very high selectivity, ratio >30-fold) | < 6.30 | 7.30 to 10.00 | 7.30 to 10.00 |  | A (bin A for very high selectivity, ratio >30-fold) | 
9 | CCc1onc2c1-c1cnc(N)c(c1)O[C@H](C)c1cc(F)ccc1-c1nn(C)nc1C2 [Example 31, (19R)-3ethyl-16-fluoro-10,19-dimethyl-4,20-dioxa-5,9,10,11,23-pentaazapentacyclo[19.3.1.0^2,^6.0^8,^12.0^13,^18]pentacosa-1(24),2,5,8,11,13,15,17,21(25),22-decaen-22-amine] | 7.30 to 10.00 | A (bin A for very high selectivity, ratio >30-fold) | C (bin C for moderate selectivity, ratio ≥1) | 6.30 to 7.30 | 6.30 to 7.30 |  |  |  | 
10 | CCn1ncc2c1-c1cnc(N)c(c1)O[C@H](C)c1cc(F)ccc1-c1c(ncn1C)C2 [Example 11, (19R)-3-ethyl-16-fluoro-11,19-dimethyl-20-oxa-3,4,9,11,23-pentaazapentacyclo[19.3.1.0^2,^6.0^8,^12.0^13,^18]pentacosa-1(24),2(6),4,8(12),9,13,15,17,21(25),22-decaen-22-amine] | 7.30 to 10.00 | A (bin A for very high selectivity, ratio >30-fold) | B (bin B for high selectivity, ratio >10-fold) | < 6.30 | 6.30 to 7.30 |  |  |  | 
